# Article PMC11189555, “Aryl amino acetamides prevent Plasmodium falciparum ring development via targeting the lipid-transfer protein PfSTART1” (Nature Communications, 2024)
# Values joined by “and” are separate entries in the source; they are usually repeats but may differ in a detail not shown here. Equal values may be shown once. Read-outs that look alike come from different tables or passages of the source.
# Test system: SLI-N330K parasites
# Test: Growth inhibition assay (72 h, LDH activity)
# Assay type: cell-based, Plasmodium falciparum
# Conditions: for Growth inhibition, (1 - av / DMSO) x 100: Fig 2B source data, per biological replicate; for EC50: Plasmodium falciparum
# Method: Parasite growth assays with inhibitory compounds were performed as per[11] and are fully described in the Supplementary Information.
# Molecular biology and transfection of P. falciparum: Selection Linked Integration […]
# To introduce the PfSTART1 mutations, the second half of the coding sequence of pfstart1 (PF3D7_0104200), was recodonised without introns to the bias of Saccharomyces cerevisiae containing either WT, N309K or N330K mutations, and synthesised as gBlock fragments (Integrated DNA Technologies). The first 819 bp of the 5′ native sequence of pfstart1 was amplified from gDNA, to form the 5’ homology block (5’ HB). The 3′ recodonised gBlock fragment comprising of the last 552 bp of either the WT, N309K or N330K pfstart1 to form the ‘recodon’ block (primers listed in Table S2). The 5’ HB and recodon products were sewn together by overlapping PCR to reconstitute the full coding sequence of pfstart1. These blocks (WT/N309K/N330K) were digested with BglII/PstI, and inserted into the parasite vector p-HA-2A-Neo-glmS
# 1. This plasmid contains an in -frame haemagglutinin (HA) epitope for protein identification and a P2A peptide (2A) to skip continuous peptide bond synthesis of a downstream neomycin resistance gene ( NeoR).
# Parasites containing the transfected DNA were selected using 2.5 nM WR99210 (Jacobus). To select for parasites in which single crossover integration had occurred into the pfstart1 locus, parasites were treated with 400 μg/mL G418 (geniticin, Sigma Aldrich) for 14 days: only parasites that have integrated the construct into their genome expressed the neomycin resistance gene together with the PfSTART1 protein.
# Parasite lines were cloned using limiting dilution. These clones were then tested on Western Blot (for correct HA-tagging and protein size), and correct integration and sequence were tested by PCR analysis: PCR on the gDNA was conducted using the primers START_5’UTR.F and START_Seq.R (Table S2). […]
# Growth inhibition assays. Synchronised ring-stage parasites (0.3-0.6% parasitemia, 2% haematocrit) were grown for 72 h in a serial-dilution of the compound under […]
# and compound 4. Note that M-833 was first purchased from MolPort (MolPort -002-267-916) then made in-house at WEHI: the differences observed in EC50s across experiments are attributed to the different batches of M -833. For some experiments, 0, 0.25 or 2.5 mM of glucosamine (GlcN) was also added. Experiments were set up in technical duplicates or triplicates. Following a freeze -thaw cycle, lactate dehydrogenase (LDH) activity was assessed as an indicator of parasite growt h 5. 30 μL of parasite culture was incubated for 30 min in the dark with 75 μL Malstat mixture (0.1 M Tris pH 9.0, 20 g/L lactic acid, pH 7.5, 0.2% Triton-X100, 0.5 g/L acetylpyridine adenine dinucleotide (APAD, Sigma), 200 μg/mL nitroblue tetrazolium (NBT; Sigma), 1 μg/mL phenozine ethosulfate (PES; Sigma)). Absorbance was then measured at 650 nm, transformed using the formula below, plotted against the logarithm of the concentrations, and a non-linear regression (log(inhibitor) vs. response, variable slope) was calculated using GraphPad Prism to assess the half-inhibitory […]
# Growth inhibition % = (1 − average(sample)− average(uRBC)) ∗ 100 […]
# The DMSO samples were also used to assess growth of parasite in the presence of 0.25 and 2.5 mM GlcN (normalised by DMSO in 0 mM GlcN).
# Egress, invasion & recovery assay. To measure egress, invasion and follow up recovery in the presence of different compounds, we adapted the method developed in6, using Hyp1-Nluc parasites7. These parasites episomally express the exported PEXEL protein Hyp1 (PF3D7_0113300) tagged with a NanoLuc luciferase (NLuc) and were selected with 2.5 nM WR99210 (Jacobus). Highly synchronised schizonts were obtained using ML10 (LifeArc) and sorbitol synchronisation, and Percoll-purified (the culture was gently layered over 67% Percoll (Cytiva) in RPMI, and centrifuged for 15 min at 1500 g and the schizont layer was collected and washed). […]
smiles,measurement,setting,value
Cc1cc(Cl)c(S(=O)(=O)N2CCCC2)cc1OCC(=O)NC1CCCCC1 [M-833],sample/DMSO,"0.123457 uM M-833, START(N330K), 0.25 mM GlcN, biological replicate 4",-2.981
same,sample/DMSO,"0.123457 uM M-833, START(N330K), 2.5 mM GlcN, biological replicate 1",25.4075
same,sample/DMSO,"0.123457 uM M-833, START(N330K), 2.5 mM GlcN, biological replicate 2",9.59
same,sample/DMSO,"0.123457 uM M-833, START(N330K), 2.5 mM GlcN, biological replicate 3",1.226
same,sample/DMSO,"0.123457 uM M-833, START(N330K), 2.5 mM GlcN, biological replicate 4",-0.1405
same,sample/DMSO,"0.37037 uM M-833, START(N330K), 0 mM GlcN, biological replicate 1",19.3431
same,sample/DMSO,"0.37037 uM M-833, START(N330K), 0 mM GlcN, biological replicate 2",2.274
same,sample/DMSO,"0.37037 uM M-833, START(N330K), 0 mM GlcN, biological replicate 3",7.66
same,sample/DMSO,"0.37037 uM M-833, START(N330K), 0 mM GlcN, biological replicate 4",-3.175
same,sample/DMSO,"0.37037 uM M-833, START(N330K), 0.25 mM GlcN, biological replicate 1",19.0968
same,sample/DMSO,"0.37037 uM M-833, START(N330K), 0.25 mM GlcN, biological replicate 2",15.8158
same,sample/DMSO,"0.37037 uM M-833, START(N330K), 0.25 mM GlcN, biological replicate 3",6.853
same,sample/DMSO,"0.37037 uM M-833, START(N330K), 0.25 mM GlcN, biological replicate 4",-2.547
same,sample/DMSO,"0.37037 uM M-833, START(N330K), 2.5 mM GlcN, biological replicate 1",28.3178
same,sample/DMSO,"0.37037 uM M-833, START(N330K), 2.5 mM GlcN, biological replicate 2",11.3273
same,sample/DMSO,"0.37037 uM M-833, START(N330K), 2.5 mM GlcN, biological replicate 3",5.76
same,sample/DMSO,"0.37037 uM M-833, START(N330K), 2.5 mM GlcN, biological replicate 4",6.979
same,sample/DMSO,"1.11111 uM M-833, START(N330K), 0 mM GlcN, biological replicate 1",22.4532
same,sample/DMSO,"1.11111 uM M-833, START(N330K), 0 mM GlcN, biological replicate 2",7.959
same,sample/DMSO,"1.11111 uM M-833, START(N330K), 0 mM GlcN, biological replicate 3",16.7199
same,sample/DMSO,"1.11111 uM M-833, START(N330K), 0 mM GlcN, biological replicate 4",4.969
same,sample/DMSO,"1.11111 uM M-833, START(N330K), 0.25 mM GlcN, biological replicate 1",24.0145
same,sample/DMSO,"1.11111 uM M-833, START(N330K), 0.25 mM GlcN, biological replicate 2",17.1338
same,sample/DMSO,"1.11111 uM M-833, START(N330K), 0.25 mM GlcN, biological replicate 3",18.125
same,sample/DMSO,"1.11111 uM M-833, START(N330K), 0.25 mM GlcN, biological replicate 4",8.022
same,sample/DMSO,"1.11111 uM M-833, START(N330K), 2.5 mM GlcN, biological replicate 1",36.9907
same,sample/DMSO,"1.11111 uM M-833, START(N330K), 2.5 mM GlcN, biological replicate 2",15.1494
same,sample/DMSO,"1.11111 uM M-833, START(N330K), 2.5 mM GlcN, biological replicate 3",17.4656
same,sample/DMSO,"1.11111 uM M-833, START(N330K), 2.5 mM GlcN, biological replicate 4",7.728
same,"Growth inhibition, (1 - av / DMSO) x 100","SLI-N330K, M-833 conc 0.00304832 (unit not given)",-17.2829% and -4.43% and -6.85%
same,"Growth inhibition, (1 - av / DMSO) x 100","SLI-N330K, M-833 conc 0.00914495 (unit not given)",-20.2465% and -6.679% and -8.021%
same,"Growth inhibition, (1 - av / DMSO) x 100","SLI-N330K, M-833 conc 0.0274348 (unit not given)",-22.4472% and -9.048% and -10.9244%
same,"Growth inhibition, (1 - av / DMSO) x 100","SLI-N330K, M-833 conc 0.0823045 (unit not given)",-27.3474% and -6.202% and -4.991%
same,"Growth inhibition, (1 - av / DMSO) x 100","SLI-N330K, M-833 conc 0.246914 (unit not given)",-20.5399% and -4.464% and 0.9677%
same,"Growth inhibition, (1 - av / DMSO) x 100","SLI-N330K, M-833 conc 0.740741 (unit not given)",-11.4437% and -0.9712% and 2.699%
same,"Growth inhibition, (1 - av / DMSO) x 100","SLI-N330K, M-833 conc 2.22222 (unit not given)",10.9155% and 8.4% and 12.8088%
same,"Growth inhibition, (1 - av / DMSO) x 100","SLI-N330K, M-833 conc 6.66667 (unit not given)",48.6796% and 44.0109% and 38.2735%
same,"Growth inhibition, (1 - av / DMSO) x 100","SLI-N330K, M-833 conc 20 (unit not given)",69.4542% and 76.7081% and 72.5236%
same,sample/DMSO,"M-833 3.33333 uM, START(N330K), 0 mM GlcN, biological replicates 1-4",23.2009 and 27.766 and 32.1009 and 22.2063
same,sample/DMSO,"M-833 3.33333 uM, START(N330K), 0.25 mM GlcN, biological replicates 1-4",36.1845 and 29.2292 and 28.75 and 22.2222
same,sample/DMSO,"M-833 3.33333 uM, START(N330K), 2.5 mM GlcN, biological replicates 1-4",45.6636 and 29.3607 and 33.6678 and 26.3232
same,sample/DMSO,"M-833 10 uM, START(N330K), 0 mM GlcN, biological replicates 1-4",60.4059 and 63.1206 and 59.1558 and 63.3004
same,sample/DMSO,"M-833 10 uM, START(N330K), 0.25 mM GlcN, biological replicates 1-4",65.2315 and 63.5636 and 70.0446 and 58.3469
same,sample/DMSO,"M-833 10 uM, START(N330K), 2.5 mM GlcN, biological replicates 1-4",68.4226 and 62.1265 and 64.6971 and 47.1194
same,EC50,"Fig 2B, SLI-N330K, 72 h, n = 3, unit only in x-axis title, read-out: EC50 (95% confidence interval)",6.27 µM
same,EC50,"Fig 3C, SLI-N330K, 2.5 mM GlcN, n = 4, unit on plot axis, read-out: EC50 M-833 (95% confidence interval)",> 3 µM
same,fold more resistant than the 3D7 parental parasites,"SLI-N330K, Fig 2B",64 fold
